This is an account of results in PubChem BioAssay (NCI).

Each structure is given as a SMILES string.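 Following 48 hours of exposure in 96-well plates, responses at five concentrations were used to interpolate endpoints linearly. GI50: concentration for 50% inhibition of growth. TGI: concentration producing complete growth inhibition.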

Among the test systems are COLO 205 colon; NCI-H460 lung; UACC-257 melanoma; NCI-H226 lung; MDA-MB-231 breast; HOP-62 NSCLC; A549 NSCLC; RPMI-8226 leukemia; K-562 leukemia; UO-31 renal.
Common to all, as to experiment: NCI-60 cell line screen, 48 h

For `O=C1COCCN1c1ccc(NCc2cn(Cc3ccc(F)cc3)c3ccccc23)cc1`, the GI50 is 0.664 µM in the test with COLO 205 colon; 0.133 µM with NCI-H460 lung; 0.204 µM with UACC-257 melanoma; 0.0593 µM in the test on NCI-H226 lung; 4.9 µM with MDA-MB-231 breast; 0.783 µM in the test on HOP-62 NSCLC. Further, the GI50 in the test on A549 NSCLC was 1.68 µM; with RPMI-8226 leukemia it was 0.662 µM; in the test with K-562 leukemia, 1.25 µM; with UO-31 renal, 2.42 µM. Besides, the TGI was 5.29 µM in the test on COLO 205 colon; 29.2 µM with NCI-H460 lung; 0.844 µM in the test on UACC-257 melanoma; 0.275 µM in the test on NCI-H226 lung; 27.5 µM in the test with MDA-MB-231 breast; greater than 31.7 µM with HOP-62 NSCLC. The TGI in the test on A549 NSCLC is greater than 100 µM; in the test with RPMI-8226 leukemia it was 8.8 µM; in the test with K-562 leukemia, greater than 51.3 µM; in the test with UO-31 renal, 18.2 µM.

On to `NC(CSC(c1ccccc1)(c1ccccc1)c1ccc(Br)cc1)C(=O)O` (stereo not given), for which the GI50 with COLO 205 colon was 0.241 µM; in the test with NCI-H460 lung, 0.175 µM; in the test with UACC-257 melanoma, 7.44 µM; in the test on NCI-H226 lung, 11.3 µM; in the test with MDA-MB-231 breast it was 0.133 µM; in the test on HOP-62 NSCLC it was 0.457 µM. Further, the GI50 in the test with A549 NSCLC is 0.375 µM; in the test with RPMI-8226 leukemia, 0.093 µM; in the test on K-562 leukemia it was 0.311 µM; in the test on UO-31 renal it was 12.3 µM. The TGI in the test on COLO 205 colon was 15.2 µM; with NCI-H460 lung, 18.1 µM; with UACC-257 melanoma it was greater than 72.8 µM; with NCI-H226 lung, 33.4 µM; with MDA-MB-231 breast, 3.92 µM; in the test on HOP-62 NSCLC, 21.8 µM. For the same molecule, the TGI in the test on A549 NSCLC is greater than 82.3 µM; in the test on RPMI-8226 leukemia, 22.6 µM; in the test with K-562 leukemia, 20.6 µM; in the test with UO-31 renal, greater than 100 µM.

For the molecule `O=P1(NCCCl)OCCC(OO)N1CCCl` (stereo not given), the TGI in the test with COLO 205 colon is greater than 57.3 µM; in the test on NCI-H460 lung, greater than 100 µM; with UACC-257 melanoma it was greater than 82.6 µM; in the test with NCI-H226 lung it was greater than 100 µM; in the test on MDA-MB-231 breast, greater than 100 µM; with HOP-62 NSCLC, greater than 100 µM. The TGI with A549 NSCLC is greater than 100 µM; in the test on RPMI-8226 leukemia, greater than 100 µM; with K-562 leukemia, greater than 64 µM; in the test on UO-31 renal it was greater than 100 µM.

With `Clc1ccc2c(NCCCNCc3ccc4c(c3)OCO4)ccnc2c1`, the GI50 in the test with COLO 205 colon was 1.73 µM; with NCI-H460 lung it was 3.61 µM; in the test with UACC-257 melanoma, 1.91 µM; with NCI-H226 lung, 17.8 µM; in the test with MDA-MB-231 breast, 1.72 µM; in the test on HOP-62 NSCLC, 11.5 µM. For the same molecule, the GI50 in the test on A549 NSCLC is 9.47 µM; with RPMI-8226 leukemia it was 2.31 µM; with K-562 leukemia it was 2.19 µM; in the test with UO-31 renal, 1.41 µM. The TGI in the test on COLO 205 colon came to 3.48 µM; in the test with NCI-H460 lung, 12.1 µM; in the test on UACC-257 melanoma, 3.44 µM; with NCI-H226 lung, 40.9 µM; in the test with MDA-MB-231 breast, 5.78 µM; in the test on HOP-62 NSCLC, 24.2 µM. For the same molecule, the TGI in the test with A549 NSCLC stood at 22.8 µM; in the test on RPMI-8226 leukemia, 6.16 µM; in the test on K-562 leukemia it was 7.63 µM; in the test on UO-31 renal, 3.1 µM.

With `C=C(C=O)[C@@H]1CC=C(C=O)CC1`, the GI50 was 13.8 µM with NCI-H460 lung; 15 µM with UACC-257 melanoma; 21.1 µM with NCI-H226 lung; 6.88 µM with MDA-MB-231 breast; 24.8 µM in the test on HOP-62 NSCLC; 35.1 µM in the test with A549 NSCLC. In addition, the GI50 in the test with RPMI-8226 leukemia was 2.14 µM; in the test on K-562 leukemia, 1.7 µM; in the test on UO-31 renal, 5.3 µM. For the same molecule, the TGI in the test on NCI-H460 lung was greater than 77.2 µM; in the test with UACC-257 melanoma, 57.9 µM; in the test with NCI-H226 lung, 98.7 µM; in the test with MDA-MB-231 breast, 20.1 µM; in the test on HOP-62 NSCLC it was greater than 76.7 µM; in the test on A549 NSCLC, greater than 91.7 µM. In addition, the results for the TGI with RPMI-8226 leukemia, in the test with K-562 leukemia and with UO-31 renal were 6.63 µM, greater than 100 µM and greater than 76 µM, respectively.

`O=c1c(-c2nc3ccccc3[nH]2)cc2ccccc2n1Cc1cn(Cc2ccc(F)cc2)nn1`: the GI50 in the test with NCI-H460 lung was 0.0435 µM; in the test with UACC-257 melanoma, greater than 100 µM; in the test with NCI-H226 lung, 0.572 µM; with MDA-MB-231 breast, 0.313 µM; in the test on HOP-62 NSCLC it was 0.222 µM; in the test on A549 NSCLC, 0.116 µM. In addition, the results for the GI50 in the test on RPMI-8226 leukemia, in the test on K-562 leukemia and with UO-31 renal were 0.0427 µM, 0.0609 µM and 0.327 µM, respectively. The TGI with NCI-H460 lung was greater than 100 µM; with UACC-257 melanoma it was greater than 100 µM; in the test with NCI-H226 lung, greater than 100 µM; in the test on MDA-MB-231 breast it was 8.41 µM; in the test on HOP-62 NSCLC, 9.51 µM; in the test with A549 NSCLC, greater than 100 µM. The TGI in the test on RPMI-8226 leukemia, in the test with K-562 leukemia and with UO-31 renal was greater than 100 µM each time.

Take `COc1ccccc1NC(=O)C(=O)C(C#N)CC(C)(C)C=O` (stereo not given): the TGI in the test with NCI-H460 lung, in the test with UACC-257 melanoma, in the test on NCI-H226 lung, in the test on MDA-MB-231 breast, in the test on HOP-62 NSCLC and in the test on A549 NSCLC was greater than 100 µM each time. Further, the TGI in the test on RPMI-8226 leukemia, in the test with K-562 leukemia and in the test on UO-31 renal was greater than 100 µM each time.
